Broadly, the Ki is the dissociation constant of the complex between target and ligand, obtained from inhibition or displacement. The low end stands for a stronger hold on the target, the high end for a looser hold on the target.

The experiment concerns the target T1, Orotidine 5'-phosphate decarboxylase (Saccharomyces cerevisiae S288c, UniProt P03962).
T1 sequence (P03962 whole entry): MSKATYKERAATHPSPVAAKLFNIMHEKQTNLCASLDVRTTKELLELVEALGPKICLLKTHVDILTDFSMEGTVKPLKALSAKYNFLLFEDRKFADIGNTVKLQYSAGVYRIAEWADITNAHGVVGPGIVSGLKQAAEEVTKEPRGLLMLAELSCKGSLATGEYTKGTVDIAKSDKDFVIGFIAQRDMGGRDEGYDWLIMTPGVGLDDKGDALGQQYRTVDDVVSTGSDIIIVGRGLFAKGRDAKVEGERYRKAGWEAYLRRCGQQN
Briefly: Inhibition of Saccharomyces cerevisiae ODCase at 25 degreeC by competitive binding assay.

Compound `O=c1cnn([C@@H]2O[C@H](COP(=O)(O)O)[C@@H](O)[C@H]2O)c(=O)[nH]1` [6-AZA-URIDINE MONOPHOSPHATE] yielded a Ki of 64 nM. This counts as double-digit nanomolar.

Source of the values: ChEMBL document CHEMBL1145332, “Design of inhibitors of orotidine monophosphate decarboxylase using bioisosteric replacement and determination of inhibition kinetics” (J Med Chem, 2006).
